# Patent US20120183482A1, “MELANIN PRODUCTION INHIBITOR” (FUJIFILM CORPORATION, priority 2009, published 2012)
# Experiments:
# B16 melanoma cells [1] = assay: Cytotoxicity test (MTT assay); format: cell-based; settings: for Cell survival rate: 72 hours, no sample = 100
# Description: B16 melanoma cells were seeded on 10% (v/v) FBS-containing MEM medium so as to be 1.25×10^5 cells/well in a 24-well culture plate and were cultivated for 24 hours in a usual manner.
# (§1) After the pre-cultivation, the medium was replaced with a test medium and cultivation was carried out for 72 hours. As the test medium, there was employed a medium obtained by adding 0.25 mmol/L of theophylline, 0.5% (v/v) of dimethyl sulfoxide to the medium for the pre-cultivation, and each of various evaluation samples so as to be a concentration described in Table.
# After the cultivation was finished, the cells were washed with PBS and then a 0.5 mg/mL MTT solution was added in an amount of 500 μL/well and the temperature was kept for 2 hours in an incubator. Thereafter, 1.5 mL of dimethyl sulfoxide was added thereto and then absorbance at a wavelength of 570 nm was measured and taken as an index of the number of living cells.
# A cell revival rate (%) in the case where the evaluation sample was added was determined, the number of living cells in the case where no evaluation sample was added being regarded as 100.
# B16 melanoma cells [2] = assay: Melanin production inhibition test; format: cell-based; settings: for Melanin Production: no sample = 100; for IC50: Mus musculus, B16, read out from the melanin production inhibition curves (FIG. 1), read-out: IC50 values at which 50% of the melanin production was inhibited
# Description: B16 melanoma cells were seeded on 10% (v/v) FBS-containing MEM medium (minimum basal medium containing fetal bovine serum) so as to be 2.5×10^5 cells/well in a 12-well culture plate and were cultivated for 24 hours in a usual manner.
# as §1
# The Salacia crude extract was prepared by the following method. After 0.5 kg of root and trunk parts of Salacia reticulate, Salacia oblonga, and Salacia chinensis were pulverized, 10 L of water was added thereto and extraction was performed under conditions of 100° C. and 1 hour. After the obtained extract solution was filtrated through a 100-mesh filter, spray drying was performed and a product obtained as 50 g of an extract powder was used.
# As ellagic acid, ellagic acid dihydrate manufactured by Wako Pure Chemical Industries, Ltd. was used.
# As arbutin, β-arbutin manufactured by Sigma-Aldrich was used.
# After the cultivation was finished, the cells were washed with PBS (phosphate buffer) and then a 1 mol/L aqueous sodium hydroxide solution containing 10% (v/v) dimethyl sulfoxide was added thereto. After the whole was subjected to an ultrasonic treatment at 50° C. for 30 minutes, absorbance of the solution at a wavelength of 400 nm was measured and was taken as a melanin amount in a well. Moreover, at the same time, measurement of the number of living cells by MTT assay was carried out in another culture plate (test conditions are in accordance to Example 2). Finally, the melanin amount in the well was normalized by the measurement value by the MTT assay and the resulting amount was taken as a melanin amount per unit cell.
# A melanin production inhibition rate (%) in the case where the evaluation sample was added was determined, the melanin amount in the case where no evaluation sample was added being regarded as 100.
# [3] = high concentration region, data are not shown
smiles,measurement,setting,value
"OC[C@H]1O[C@@H](Oc2ccc(O)cc2)[C@H](O)[C@@H](O)[C@@H]1O [Arbutin, β-arbutin]",cytotoxicity (in words),B16 melanoma cells [1]; [3],cytotoxicity was observed
same,Melanin Production,"B16 melanoma cells [2]; 16.338 μg/mL, 72 hours",69.5%
same,Melanin Production,"B16 melanoma cells [2]; 54.46 μg/mL, 72 hours",49.9%
same,Melanin Production,"B16 melanoma cells [2]; 163.38 μg/mL, 72 hours",28.4%
same,Melanin Production,"B16 melanoma cells [2]; 544.6 μg/mL, 72 hours",20.7%
same,IC50,B16 melanoma cells [2],54 µg/mL
O=c1cc(CO)occ1O [Kojic acid],cytotoxicity (in words),B16 melanoma cells [1]; [3],cytotoxicity was observed
same,Melanin Production,"B16 melanoma cells [2]; 8.5266 μg/mL, 72 hours",83.6%
same,Melanin Production,"B16 melanoma cells [2]; 28.422 μg/mL, 72 hours",77.2%
same,Melanin Production,"B16 melanoma cells [2]; 85.266 μg/mL, 72 hours",72.8%
same,Melanin Production,"B16 melanoma cells [2]; 284.22 μg/mL, 72 hours",43.4%
same,IC50,B16 melanoma cells [2],240 µg/mL
COc1ccc(C(=O)[O-])c(O)c1.[K+] [Potassium 4-methoxysalicylate],cytotoxicity (in words),B16 melanoma cells [1]; [3],cytotoxicity was observed
same,Melanin Production,"B16 melanoma cells [2]; 123.69 μg/mL, 72 hours",46.0%
same,Melanin Production,"B16 melanoma cells [2]; 412.3 μg/mL, 72 hours",20.1%
same,IC50,B16 melanoma cells [2],80 µg/mL
"O=S(=O)([O-])O[C@@H](CO)[C@H](O)C[S@+]1C[C@@H](O)[C@H](O)[C@H]1CO [Salacinol, salacinol]",Cell survival rate,B16 melanoma cells [1]; 1.998 μg/mL,89.6%
same,Cell survival rate,B16 melanoma cells [1]; 6.66 μg/mL,85.0%
same,Cell survival rate,B16 melanoma cells [1]; 19.98 μg/mL,87.9%
same,Cell survival rate,B16 melanoma cells [1]; 66.6 μg/mL,78.8%
same,cytotoxicity (in words),B16 melanoma cells [1]; concentration region up to 66.6 μg/mL,almost no cytotoxicity
same,Melanin Production,"B16 melanoma cells [2]; 1.998 μg/mL, 72 hours, melanin amount per unit cell",71%
same,Melanin Production,"B16 melanoma cells [2]; 6.66 μg/mL, 72 hours",50%
same,Melanin Production,"B16 melanoma cells [2]; 19.98 μg/mL, 72 hours",34%
same,melanin production inhibitory effect (in words),"B16 melanoma cells [2]; B16 melanoma cells, 72 hours",concentration-dependent and remarkable melanin production inhibitory effect
same,IC50,B16 melanoma cells [2],6.3 µg/mL
"O=c1oc2c(O)c(O)cc3c(=O)oc4c(O)c(O)cc1c4c23 [Ellagic acid, ellagic acid dihydrate]",Cell survival rate,B16 melanoma cells [1]; 0.67646 μg/mL,117.4%
same,Cell survival rate,B16 melanoma cells [1]; 2.02938 μg/mL,107.3%
same,Cell survival rate,B16 melanoma cells [1]; 6.7646 μg/mL,48.1%
same,Cell survival rate,B16 melanoma cells [1]; 20.2938 μg/mL,25.8%
same,cytotoxicity (in words),B16 melanoma cells [1]; high concentration region (up to 20.3 μg/mL),exhibited cytotoxicity
same,Melanin Production,"B16 melanoma cells [2]; 0.67646 μg/mL, 72 hours",79%
same,Melanin Production,"B16 melanoma cells [2]; 2.02938 μg/mL, 72 hours",33%
same,IC50,B16 melanoma cells [2],1.5 µg/mL
